Reference: ChEMBL document CHEMBL3112491, “3-(5-)-Amino-o-diarylisoxazoles: regioselective synthesis and antitubulin activity” (2014)
Active and inactive are the calls of the source. The calls are words filed in the database; no cut-off is given here.

Experiments:
[1] = tested on: Paracentrotus lividus; assay: Antimitotic activity in sea urchin fertilized egg assessed as cleavage arrest treated at 8 to 20 mins post-fertilization measured at 2.5 to 5.5 hrs post-fertilization; format: functional
[2] = tested on: Paracentrotus lividus; assay: Microtubule destabilizing activity in sea urchin free-swimming blastula assessed as embryo spinning treated at 9 to 10 hrs post-fertilization measured after 0.15 to 15 hrs; format: functional
[3] = tested on: Paracentrotus lividus; assay: Antimitotic activity in sea urchin fertilized egg assessed as cleavage alteration treated at 8 to 20 mins post-fertilization measured at 2.5 to 5.5 hrs post-fertilization; format: functional
[4] = tested on: Paracentrotus lividus; assay: Microtubule destabilizing activity in sea urchin free-swimming blastula assessed as embryo spinning up to 4 uM treated at 9 to 10 hrs post-fertilization measured after 0.15 to 15 hrs; format: functional, organism-based

What does the source list for COc1ccc(-c2onc(NC(C)=O)c2-c2cc(OC)c(OC)c(OC)c2)cc1?
EC [1]: >4 µM; EC [2]: >4 µM; EC [3]: >4 µM

For COc1ccc(-c2c(NC(C)=O)noc2-c2cc(OC)c3c(c2)OCO3)cc1, which EC [1] is on record?
Its EC is over 4 µM.

And the EC [2]?
Its EC is over 4 µM.

And the EC [3]?
Its EC is over 4 µM.

Which results are given for COc1ccc(-c2c(NC(C)=O)noc2-c2cccc(OC)c2)cc1?
EC [1]: >4 µM; EC [2]: >4 µM; EC [3]: >4 µM

COc1ccc(Cc2noc(-c3cccc(OC)c3)n2)cc1 was tested. Which Activity [4] did it give?
The Activity was “inactive”.

For COc1ccc(Cc2noc(-c3cc(OC)c4c(c3OC)OCO4)n2)cc1, which Activity [4] is on record?
The Activity was “inactive”.

For COc1ccc(C(=O)Nc2noc(-c3ccc(OC)cc3)c2-c2cc(OC)c(OC)c(OC)c2)cc1, which EC [1] is on record?
The EC was over 4 µM.

What about the EC [2] of the same compound?
The EC was over 4 µM.

What about the EC [3] of the same compound?
The EC was over 4 µM.

How did the EC [1] turn out when COc1ccc(-c2noc(N)c2-c2cc3c(c(OC)c2OC)OCO3)cc1 was run?
Its EC is over 4 µM.

What about the EC [2] of the same compound?
The EC was over 4 µM.

What about the EC [3] of the same compound?
The EC was over 4 µM.

How did the Activity [4] turn out when COc1ccc(-c2nc(CCc3cc(OC)c(OC)c(OC)c3)no2)cc1 was run?
The Activity was “inactive”.

Which results are given for COc1ccc(-c2c(NC(C)=O)noc2-c2cc(OC)c3c(c2OC)OCO3)cc1?
EC [1]: >4 µM; EC [2]: >4 µM; EC [3]: >4 µM

With COc1ccc(-c2onc(NC(C)=O)c2-c2ccc([N+](=O)[O-])cc2)cc1 as the compound, how does the EC [1] read?
The EC was over 4 µM.

And the EC [2]?
Its EC is over 4 µM.

And the EC [3]?
The EC was over 4 µM.

Which results are given for COc1ccc(-c2noc(N)c2-c2cc(OC)c3c(c2OC)OCO3)cc1?
EC [1]: >4 µM; EC [2]: >4 µM; EC [3]: 4 µM

COc1ccc(-c2onc(N)c2-c2cc3c(c(OC)c2OC)OCO3)cc1 was tested. Which EC [1] did it give?
The EC was over 4 µM.

And the EC [2]?
The EC was over 4 µM.

And the EC [3]?
The EC was 4 µM.

What does the source list for COc1ccc(-c2onc(N)c2-c2cc(OC)c(OC)c(OC)c2)cc1?
EC [1]: 0.02 µM; EC [2]: 0.2 µM; EC [3]: 0.004 µM

With COc1ccc(-c2c(-c3ccccc3)noc2N)cc1OC as the compound, how does the EC [1] read?
The EC was 10 µM.

And the EC [2]?
The EC was 10 µM.

And the EC [3]?
Its EC is 0.5 µM.

What does the source list for COc1ccc(-c2noc(N)c2-c2cc(OC)c(OC)c(OC)c2)cc1?
EC [1]: 0.01 µM; EC [2]: 0.1 µM; EC [3]: 0.002 µM

COc1ccc(Cc2noc(-c3ccc([N+](=O)[O-])cc3)n2)cc1 was tested. Which Activity [4] did it give?
Its Activity is “inactive”.

For COc1ccc(-c2c(NC(C)=O)noc2-c2cc(OC)c3c(c2)OCCO3)cc1, which EC [1] is on record?
Its EC is over 4 µM.

What about the EC [2] of the same compound?
The EC was over 4 µM.

And the EC [3]?
The EC was over 4 µM.
